Experimental data from ChEMBL document CHEMBL1140257, “Potential new antitumor agents from an innovative combination of camphorato, a ramification of traditional Chinese medicine, with a platinum moiety” (Bioorg Med Chem Lett, 2005).

Columns and labels:
Homo sapiens [1] = assay: Ratio of TRTV and CRTV at 9 (mg/kgper dose) in LS-174T human colon carcinoma implanted in mice; (TRTV=relative tumor volume of the treated group; CRTV=relative tumor volume of the control group); type: functional, organism-based
Homo sapiens [2] = assay: In vivo antitumor activity against LS-174T human colon carcinoma in mice at 9 (mg/kgper dose); type: functional, organism-based
Homo sapiens [3] = assay: In vivo antitumor activity against LS-174T human colon carcinoma in mice at 6 (mg/kgper dose); type: functional, organism-based
Homo sapiens [4] = assay: Ratio of TRTV and CRTV at 6 (mg/kgper dose) in LS-174T human colon carcinoma implanted in mice; (TRTV=relative tumor volume of the treated group; CRTV=relative tumor volume of the control group); type: functional, organism-based
HL-60 = assay: In vitro Inhibitory concentration against HL-60 human leukemia cell line; Tested by trypan blue exclusion test; type: functional, cell-based
A549 = assay: In vitro Inhibitory Concentration against A549 human lung carcinoma cell line; Tested by sulforhodamine B colorimetric assay; type: functional, cell-based
[5] = In vitro Inhibitory concentration against 3AO human ovarian carcinoma cell line; Tested by sulforhodamine B colorimetric assay; type: functional
Bel-7402 = assay: In vitro Inhibitory concentration against BEL-7402 human hepatocarcinoma cell line; Tested by sulforhodamine B colorimetric assay; type: functional, cell-based

Row | IC50 (HL-60) | IC50 (A549) | IC50 [5] | IC50 (Bel-7402) | Sequence | T/C (Homo sapiens [1]) | Inhibition tumor index (Homo sapiens [2]) | Inhibition tumor index (Homo sapiens [3]) | T/C (Homo sapiens [4])
1 |  |  |  |  | OXALIPLATIN | 50.8% | 51% | 24% | 87.4%
2 | 2860 nM | 42300 nM | 29100 nM | 36100 nM | CARBOPLATIN |  |  |  | 
3 | 330 nM | 2230 nM | 470 nM | 770 nM | CISPLATIN |  |  |  | 
